Values of other authors in patent US20190026423A1, “Cycle Closure Estimation of Relative Binding Affinities and Errors” (Schrödinger, LLC, priority 2013, published 2019).
Read-outs that look alike come from different tables or passages of the source.

Target: CDK2-cyclin A receptor (Homo sapiens, UniProt P24941)
Conditions: experimental binding free energy
[1] = 6 ligands with crystal structures
[2] = ligands without crystal structures

Compound	ΔG(EXP) [1] [kcal/mol]	ΔG(EXP) [2] [kcal/mol]
Cc1cccc(Nc2nc(OCC3CCCCC3)c3nc[nH]c3n2)c1 [Compound 1h1r]	-7.67	–
CS(=O)(=O)c1cccc(Nc2nc(OCC3CCCCC3)c3nc[nH]c3n2)c1 [Compound 1oiu]	-9.08	–
CC(=O)c1ccc(Nc2nc(OCC3CCCCC3)c3nc[nH]c3n2)cc1 [Compound 1oiy]	-9.79	–
Cc1cccc(Nc2nc(OCC3CCCCC3)c3nc[nH]c3n2)c1 [Compound 17]	–	-7.04
CCc1cccc(Nc2nc(OCC3CCCCC3)c3nc[nH]c3n2)c1 [Compound 20]	–	-8.72
